Results published in patent US20250195448A1, “CELL TYPE SELECTIVE DELIVERY OF EXOSOME CARGO USING NOTCH LIGAND-RECEPTOR SYSTEM” (Northwestern University, priority 2023, published 2025).
Entries after “also recorded” stand apart in the source; their conditions may differ.

Columns and labels:
[1] = test system: Notch signaling pathway; test: Pharmacological treatments of neurons, Mg^2+-free glycine-induced Notch activation (WB); assay type: cell-based, rat; details: 90 mins after treatment; for effect on Mg^2+-free glycine-induced elevation of activated-Notch1, -Notch2 and Hes1 protein levels: APV 50 μM, dynasore 80 μM pretreatment
Experimental: Synaptic NMDARs were activated as previously described^16,63. […] The osmolarity was adjusted to 300-330 mOsm/l). […] The osmolarity was adjusted to 300-330 mOsm/l). […] Then, neuron culture medium was carefully removed from dishes. […] Then neurons were washed twice with Veh solution, the saved culture medium was returned and maintained in incubator for assigned durations (37° C., 5% CO2). Neuron samples were collected and resuspended in a RIPA lysis buffer (50 mM Tris, 150 mM NaCl, 0.1% SDS, 1 mM EDTA, 0.5% sodium deoxycholate, 1% Triton X-100, 1× protease inhibitor cocktail (Thermo Fisher Scientific, Cat #78443), 1× phosphatase inhibitor (Thermo Fisher Scientific, Cat #78420), pH 7.4). The resuspended lysates were vortexed for 20 s and then incubated on ice for 30 min and centrifuged at 16,200 g for 15 mins. The supernatants were mixed with 4×SDS loading buffer at a 3:1 ratio. The mixtures were boiled at 95° C. for 5 mins. […] Fiji (NIH) was used for quantification.

[2] = test system: Alix; test: Alix phosphorylation in Mg^2+-free glycine-treated neurons (IP of Alix, WB p-S/T); assay type: cell-based, rat; details: for effect on Mg^2+-free glycine-induced Alix phosphorylation: H89 20 μM, staurosporine 1 μM, APV 50 μM, KN93 10 μM, AIP 1 μM
Experimental: Neurons were pretreated with DMSO (1:1000) or dynasore (80 μM, Sigma-Aldrich, Cat #SML0340) or H89 (20 μM, Sigma-Aldrich, Cat #B1427) or staurosporine (1 μM, Tocris, Cat #1285) or APV (50 μM, Sigma-Aldrich, Cat #A5282) or KN93 (10 μM, Sigma-Aldrich, Cat #K1385) or AIP (1 μM, Anaspec, Cat #AS-64929) for 30 mins at 37° C. in a humidified 5% CO2 atmosphere incubator. Then, neuron culture medium was carefully removed from dishes. The collected medium was then kept at 37° C. in a humidified 5% CO2 atmosphere incubator. The neurons were washed three times with Veh or Mg^2+-free glycine and incubated for 5 min with solutions containing different inhibitors. Then neurons were washed twice with Veh solution, the saved culture medium was returned and maintained in incubator for assigned durations (37° C., 5% CO2).
WedgeWell™ Tris-Glycine Mini Protein Gels (Fisher Scientific, Cat #XP04125BOX, XP04120BOX and XV00100PK20) were used for electrophoresis. After electrophoresis, proteins were transferred onto nitrocellulose membranes (Thermo Fisher, Cat #4500002). For WB, the membranes were blocked with 10% bovine serum albumin (BSA, Jackson immunoResearch laboratories, Cat #001-000-162) in TBST solution (Tris-buffered saline, 0.1% Tween 20) for one hour in room temperature (RT). Then membranes were incubated with primary antibodies in incubation solution (3% BSA in TBST) overnight at 4° C. with mild agitation. Following primary antibodies were used: mouse anti-Alix (1:1000, Cell Signaling Technology, Cat #2171S, RRID: AB_2299455), rabbit anti-Alix (1:1000, Cell Signaling Technology, Cat #18269, RRID: AB_2798796), mouse anti-Tsg101 (1:1000, Santa Cruz Biotechnology, Cat #sc-7964, RRID: AB_671392), mouse anti-CD81 (1:1000, Santa Cruz Biotechnology, Cat #sc-166029, RRID: AB_2275892), rabbit anti-Notch1ICD (1:1000, Abcam, Cat #ab52627, RRID: AB_881725), rabbit anti-Notch2ICD (1:1000, Cell Signaling Technology, Cat #5732S, RRID: AB_10693319), rabbit anti-activated Notch1 (1:1000, Abcam, Cat #ab52301, RRID: AB_881726), rabbit anti-activated Notch2 (1:1000, MyBioSource, Cat #MBS9410510), rabbit anti-Sdcbp (1:1000, Abcam, Cat #ab19903, RRID: AB_445200 and Cell Signaling Technology, Cat #27964), rabbit anti-GM130 (1:1000, Abcam, Cat #ab52649, RRID: AB_880266), rabbit anti-Hes1 (1:1000, Cell Signaling Technology, Cat #11988S, RRID: AB_2728766 and Abcam, Cat #ab71559, RRID: AB_1209570), chicken anti-Tuj1 (1:2000, Novus Biologicals, Cat #NB100-1612, RRID: AB_10000548), rabbit anti-p-S/T (1:1000, Cell Signaling Technology, Cat #9624S, RRID: AB_331817), mouse anti-PSD95 (1:2000, Thermo Fisher Scientific, Cat #MA1-046, RRID: AB_2092361), rabbit anti-PSD95(pS295) (1:1000, Abcam, Cat #ab76108, RRID: AB_1310621), rabbit anti-GAPDH (1:2000, Cell Signaling Technology, Cat #2118, RRID: AB_561053), rabbit anti-GluA1 (1:1000, EMD Millipore, Cat #PC246, RRID: AB_564636) and guinea pig anti-Bassoon (1:1000, Synaptic Systems, Cat #141 318, RRID: AB_2927388). After 3×10 mins intense wash in TBST solution, membranes were incubated with corresponding secondary antibodies for one hour at RT with mild agitation. Following secondary antibodies were used: goat-anti-rabbit poly-HRP (1:2000, Thermo Scientific, Cat #32260), goat-anti-mouse poly-HRP (1:2000, Thermo Scientific, Cat #32230), goat-anti-chicken HRP (1:2000, Abcam, Cat #ab97135) and Goat anti-Guinea Pig poly-HRP (1:2000, Fisher Scientific, Cat #OB6090-05). […] Fiji (NIH) was used for quantification.

[3] = test system: hippocampal neurons; test: Mg^2+-free glycine-induced neuronal EV release; assay type: cell-based; details: for effect on Mg^2+-free glycine-induced EV release: APV 50 μM, H89 20 μM
Experimental: Synaptic NMDARs were activated as previously described^16,63. […] The osmolarity was adjusted to 300-330 mOsm/l). […] The osmolarity was adjusted to 300-330 mOsm/l). […] The EV-containing supernatant was centrifuged at 3000×g for 30 mins at 4° C. to remove residual neurons and large debris. Then, the supernatant was concentrated using a molecular weight cutoff (MWCO) filter (10 KDa, EMD Millipore, Cat #UFC801024) to 0.5 ml. The concentrated solution was then fractionated into 10 fractions (0.5 ml in EV-free PBS, MEDIATECH INC CA, Cat #21-040-CV) using a qE-Voriginal-35 nm SEC column (Izon Science, Cat #SP5-USD) with an automated fraction collector V1 (Izon Science, Cat #AFC-V1). For each experimental group, EVs released from three 60 mm dishes of mouse hippocampal neurons were pooled and enriched by the SEC method as described above. Then take 10 μl of the enriched EVs from each sample and dilute them with 990 μl EV-free PBS. The samples were centrifuged at 2500×g for 15 mins. Mix 0.5 ml of each sample with 0.5 ml incubation solution. Load 70 μl of each mixture to an ExoView Mouse Tetraspanin chip (Nanoview Bioscience, Cat #EV-TETRA-M2) and incubate overnight at RT in dark. The next day, unbound EVs were washed off the chip by five 3-min washes with the solution A. After incubating with the block solution for 1 hr (RT), the chips were incubated with anti-tetraspanin mixture (Included in the kit, anti-CD81, CF® 555, anti-CD9, CF® […] and anti-CD63, CF® 647) for 1 hr on an orbital shaker. The chips were washed with the solution A twice (3 mins each) and the solution B 5 times (3 min each). The chips were then rinsed in MilliQ water to remove excess solution B. Air dry the chips. A NanoView R100 equipment (Nanoview Bioscience) was used to scan the chips. The data was analyzed by ExoView Analyzer 3.1.4 (Nanoview Bioscience). […] Then, neuron culture medium was carefully removed from dishes. […] Then neurons were washed twice with Veh solution, the saved culture medium was returned and maintained in incubator for assigned durations (37° C., 5% CO2).

[4] = test system: PSD95
Experimental: WedgeWell™ Tris-Glycine Mini Protein Gels (Fisher Scientific, Cat #XP04125BOX, XP04120BOX and XV00100PK20) were used for electrophoresis. After electrophoresis, proteins were transferred onto nitrocellulose membranes (Thermo Fisher, Cat #4500002). For WB, the membranes were blocked with 10% bovine serum albumin (BSA, Jackson immunoResearch laboratories, Cat #001-000-162) in TBST solution (Tris-buffered saline, 0.1% Tween 20) for one hour in room temperature (RT). Then membranes were incubated with primary antibodies in incubation solution (3% BSA in TBST) overnight at 4° C. with mild agitation. […] Fiji (NIH) was used for quantification.

[5] = test system: neurons; details: 30 mins treatment
Experimental: An aliquot of each sample (100 l) was transferred from the culture wells to the wells of a 96-well plate and mixed with 100 μl of the reaction solution provided by the kit. Optical density was measured at 492 nm 45 min later using a Synergy HTX multi-mode microplate reader (Biotek). Background absorbance at 620 nm was subtracted. The maximal releasable LDH in each well was then obtained by a 15 min incubation with 1% Triton X-100 at the end of each experiment.

[6] = test system: rat hippocampal neurons
Experimental: DIV 18 rat hippocampal neurons in 6-well plate (cover glasses, Carolina, Cat #633037, 1.5×10^6 cells per well) were used for this assay. At DIV 16, neurons were co-transfected with either 1 μg mCherry+GFP or 1 μg mCherry-Alix+GFP plasmids using HilyMax (Dojindo Cat #H357-15). Two days later, the neurons were used for live cell imaging analysis. Neurons (put in a magnetic imaging chamber, Warner Instruments, Cat #QR-40L) were rinsed three times with warm (37° C.) extracellular solution (pH 7.4, 150 mM NaCl, 5 mM KCl, 1 mM MgCl2, 2 mM CaCl2), 10 mM glucose, 10 mM HEPES). Then the neurons were placed into a heating stage (37° C.) supplied with a humidified 5% CO2 atmosphere and were incubated with this solution for 20 mins in a humidified 5% CO2 atmosphere incubator at 37° C. […] Then the extracellular solution was put back. Images were captured using a Nikon A1R+ confocal laser microscope and a 100× oil objective lens (also was kept at 37° C. during recording). […] The data was imported to Fiji (NIH) for further analysis.

[7] = test system: Notch target genes; details: 60 mins after treatment

SMILES | effect on Mg^2+-free glycine-induced elevation of activated-Notch1, -Notch2 and Hes1 protein levels [1] | effect on Mg^2+-free glycine-induced Alix phosphorylation [2] | effect on Mg^2+-free glycine-induced EV release [3] | also measured
N[C@H](CCCP(=O)(O)O)C(=O)O [APV, D-2-amino-5-phosphonovalerate] | inhibited | blocked; also recorded: significantly reduced | suppress; also recorded: blocked | –
O=C(N/N=C/c1ccc(O)c(O)c1)c1cc2ccccc2cc1O [Dynasore] | blocked elevation | – | – | effect on Mg^2+-free glycine-induced elevation of activated-Notch1, -Notch2 and Hes1 protein levels ([1]; listed as dynasore): inhibited
O=S(=O)(NCCNC/C=C/c1ccc(Br)cc1)c1cccc2cnccc12 [H89] | – | significantly inhibit; also recorded: inhibited | suppress; also recorded: blocked | –
COc1ccc(S(=O)(=O)N(CCO)c2ccccc2CN(C)C/C=C/c2ccc(Cl)cc2)cc1 [KN93] | – | failed to block | – | –
NCC(=O)O [Mg^2+-free glycine, glycine] | – | – | – | levels of activated-Notch1, -Notch2 and Hes1 after Mg^2+-free glycine treatment ([1]; WB): elevated; Alix phosphorylation after Mg^2+-free glycine stimulation [2]: leads to Alix phosphorylation; neuronal EV biogenesis and release ([3]; Mg^2+-free glycine solution, 30 mins): triggered; phosphorylation of Ser295 (pS295) in PSD95 [4]: induces; plasma membrane rapture (LDH) [5]: does not cause; dendritic spine enlargement [6]: enlarged dendritic spines; Notch target gene expression [7]: activated
CN[C@@H]1C[C@H]2O[C@@](C)([C@@H]1OC)n1c3ccccc3c3c4c(c5c6ccccc6n2c5c31)C(=O)NC4 [Stau, staurosporine] | – | not significant | – | –
